Measurements taken from US20150203471A1, “METHODS FOR IMPROVING CHICKEN PRODUCTION” (ELI LILLY AND COMPANY, priority 2012, published 2015).
Where a name gives a salt, the structure may show the parent alone. Read-outs that look alike come from different tables or passages of the source.

Tests used:
male broilers [1] = assay: Study 1: growth performance and carcass responses of male broilers, compounds in feed vs positive and negative controls; format: in vivo, chicken; conditions: 14 days; for Ave daily live wt gain % inc. / Breast wt % inc. / Feed intake % inc. / Gain effic % inc. / Leg wt % inc. / Fat Pad wt % dec. / change in vivo at 15 ppm, 15 µg/mL: 15 ppm in feed ad libitum; for Ave daily live wt gain % inc. / Breast wt % inc. / Feed intake % inc. / Gain effic % inc. / Leg wt % inc. / change in vivo at 15 ppm, 15 µg/mL: percent change from negative control; for Fat Pad wt % dec.: percent decrease from negative control; for improvement versus negative control and positive control (in words): positive control = Compound 1; for change in vivo at 15 ppm, 15 µg/mL: Gallus gallus, feed or water, 336 h
Text: An objective of this study is to evaluate growth performance and carcass responses of male broilers by comparing non-zero dosages of the above compounds versus a positive control (Compound 1) and negative controls. Table 1 sets out the specific treatment groups:
(§1) The route of administration is oral, with the compounds mixed in feed, and provided Ad libitum. The age of the chickens of Day 1 of the study is 35 days old. Body weights are taken on the following days: • 1) Study Day 1 (pen weight) • 2) Study Day 14 (individual animal weights) • 3) Study Day 15 (individual weights on selected animals) • 4) Study Day 16 (blocks 1-5) • 5) Study Day 17 (blocks 6-10).
(§2) Following collection of final weights, the following processing data is collected (hot weights) on individual animals: • 1) Live weight • 2) Hot carcass weight • 3) Fat pad weight • 4) Hot breast muscle weight • 5) Hot bone in leg weight

male broilers [2] = assay: Study 2: growth performance and carcass responses of male broilers, compounds in feed in the last 14 days prior to slaughter; format: in vivo, chicken
Method: Compounds 2, 5, and 9 are used in this study. The study is conducted to evaluate growth performance and carcass responses of male broilers by comparing non-zero dosages of the compounds, versus negative control, administered in the last 14 days prior to slaughter. Table 3 sets out the specific treatment groups.
as §1, with “15” for “14”, “16” for “15”, “animals in animals in blocks 1-4)” for “animals)”, “Day” for “Day 16 (blocks 1-5) • 5) Study Day”, “(individual weights on selected animals in animals in blocks 5-8)” for “(blocks 6-10).”
as §2

[3] = male broilers, * in cell = not significant
[4] = male broilers 35 days old at Day 1, * in cell = not significant vs negative control, read-out: ADG % inc.
[5] = male broilers, * in cell = not significant, read-out: Hot carcass wt % inc.

Row | Structure (SMILES) | Ave daily live wt gain % inc. (male broilers [1]; [3]) | Breast wt % inc. (male broilers [1]; [3]) | Feed intake % inc. (male broilers [1]; [3]) | Gain effic % inc. (male broilers [1]; [3]) | Leg wt % inc. (male broilers [1]; [3]) | Fat Pad wt % dec. (male broilers [1]; [3]) | change in vivo at 15 ppm, 15 µg/mL (male broilers [1]; [4]) | change in vivo at 15 ppm, 15 µg/mL (male broilers [1]; [5]) | other results
1 | CC(C)(Cc1ccc(Oc2ncccc2C(N)=O)cc1)NC[C@H](O)COc1cccc2[nH]ncc12 [Compound 9, 2-[4-(2-{[(2S)-2-hydroxy-3-(1H-indazol-4-yloxy)propyl]amino}-2-methylpropyl)phenoxy]pyridine-3-carboxamide] | 9.3% | 4.8% | 2.1* % | 6.7% | 7.9% | 17.8% | 8.9% | 5% | fat pad weight (in words) (male broilers [1]; 15 ppm in feed): reduce fat pad weight; feed intake (in words) (male broilers [1]; 15 ppm in feed): significant increase in feed intake; gain versus untreated control (in words) (male broilers [1]; 15 ppm in feed): significantly greater than untreated control; significance of the fat pad weight difference (male broilers [1]; 15 ppm in feed): significant; improvement versus negative control and positive control (in words) (male broilers [1]; 15 ppm in feed): significantly better improvement than both the negative control and the positive control; F/G ratio (feed:gain efficiency) versus negative control group (male broilers [2]; 3.5 ppm in feed): significantly lower; G/F ratio (gain:feed efficiency) versus negative control group (male broilers [2]; 3.5 ppm in feed): significantly higher; hot bone-in leg weight versus negative control group (male broilers [2]; 3.5 ppm in feed): significantly higher; hot breast muscle weight versus negative control group (male broilers [2]; 3.5 ppm in feed): significantly higher; hot carcass weight versus negative control group (male broilers [2]; 3.5 ppm in feed): significantly higher; ADFI versus negative control group (male broilers [2]; 7 ppm in feed): significantly higher; ADG versus negative control group (male broilers [2]; 7 ppm in feed): significantly higher; F/G ratio (feed:gain efficiency) versus negative control group (male broilers [2]; 7 ppm in feed): significantly lower; G/F ratio (gain:feed efficiency) versus negative control group (male broilers [2]; 7 ppm in feed): significantly higher; hot bone-in leg weight versus negative control group (male broilers [2]; 7 ppm in feed): significantly higher; hot breast muscle weight versus negative control group (male broilers [2]; 7 ppm in feed): significantly higher; hot carcass weight versus negative control group (male broilers [2]; 7 ppm in feed): significantly higher
2 | CC(C)(Cc1ccc(Oc2ncccc2C(N)=O)cc1)NC[C@H](O)COc1ccccc1-c1cc2ccccc2[nH]1 [Compound 4, 2-{4-[2-({(2S)-2-hydroxy-3-[2-(1H-indol-2-yl)phenoxy]propyl}amino)-2-methylpropyl]phenoxy}pyridine-3-carboxamide] |  |  |  |  |  |  | -1.6% | 0.3% | 
3 | CC(C)(Cc1ccc(Oc2ccc(C(=O)N3CCOCC3)cn2)cc1)NC[C@H](O)COc1cccc2[nH]ccc12 [Compound 6, (2S)-1-{[1,1-dimethyl-2-(4-{[5-(morpholin-4-ylcarbonyl)pyridin-2-yl]oxy}phenyl)ethyl]amino}-3-(1H-indol-4-yloxy)propan-2-ol] |  |  |  |  |  |  | 3.9% | 3.8% | 
4 | CC(C)(Cc1ccc(Oc2ccc(S(C)(=O)=O)cc2)cc1)NC[C@H](O)COc1cccc2[nH]c(=S)[nH]c12 [Compound 3, 4-({(2S)-3-[(1,1-dimethyl-2-{4-[4-(methylsulfonyl)phenoxy]phenyl}ethyl)amino]-2-hydroxypropyl}oxy)-1,3-dihydro-2H-benzimidazole-2-thione] |  |  |  |  |  |  | 1.6% | 2.7% | 
5 | CC(C)(Cc1ccc(Oc2ncccc2C#N)cc1)NC[C@H](O)COc1ccccc1-c1cccs1 [Compound 1, 2-[4-(2-{[(2S)-2-hydroxy-3-(2-thiophen-2-ylphenoxy)propyl]amino}-2-methylpropyl)phenoxy]pyridine-3-carbonitrile, reference compound] | 4.0% | 3.5* % | 2.7% | 1.6* % | 1.2* % | 9.8* % | 4.4% | 2.4% | growth performance parameters improved (in words) (male broilers [1]; 15 ppm in feed, vs negative control): improved ADG, feed intake, average daily live weight gain only
6 | CC(C)(Cc1ccc(Oc2ccc(S(C)(=O)=O)cc2S(C)(=O)=O)cc1)NC[C@H](O)COc1cccc2[nH]c(C(N)=O)cc12 [Compound 7, 4-({(2S)-3-[(2-{4-[2,4-bis(methylsulfonyl)phenoxy]phenyl}-1,1-dimethylethyl)amino]-2-hydroxypropyl}oxy)-1H-indole-2-carboxamide] |  |  |  |  |  |  | 2% | 1.2% | 
7 | CC(C)(Cc1ccc(Oc2ccc(C(=O)O)cc2)cc1)NC[C@H](O)COc1cccc(O)c1 (stereo in doubt) [Compound 8, 4-[4-(2-{[2-hydroxy-3-(3-hydroxyphenoxy)propyl]amino}-2-methylpropyl)phenoxy]benzoic acid dihydrochloride] |  |  |  |  |  |  | -0.4% | 0.8% | 
8 | CC(C)(Cc1ccc(Oc2ccc(C(=O)N3CCOCC3)cn2)cc1)NC[C@H](O)COc1cccc2[nH]ncc12 [Compound 2, (2S)-1-{[1,1-dimethyl-2-(4-{[5-(morpholin-4-ylcarbonyl)pyridin-2-yl]oxy}phenyl)ethyl]amino}-3-(1H-indazol-4-yloxy)propan-2-ol] | 8.3% | 6.1% | 4.8% | 3.8% | 8.2% | 12.8* % | 8.7% | 6.1% | fat pad weight (in words) (male broilers [1]; 15 ppm in feed): reduce fat pad weight; feed intake (in words) (male broilers [1]; 15 ppm in feed): significant increase in feed intake; gain versus untreated control (in words) (male broilers [1]; 15 ppm in feed): significantly greater than untreated control; improvement versus negative control and positive control (in words) (male broilers [1]; 15 ppm in feed): significantly better improvement than both the negative control and the positive control; ADFI versus negative control group (male broilers [2]; 3.5 ppm in feed): significantly lower; F/G ratio (feed:gain efficiency) versus negative control group (male broilers [2]; 7 ppm in feed): significantly lower; G/F ratio (gain:feed efficiency) versus negative control group (male broilers [2]; 7 ppm in feed): significantly higher; hot bone-in leg weight versus negative control group (male broilers [2]; 7 ppm in feed): significantly higher; hot breast muscle weight versus negative control group (male broilers [2]; 7 ppm in feed): significantly higher; hot carcass weight versus negative control group (male broilers [2]; 7 ppm in feed): significantly higher
